Experimental data published in patent publication US10757937B2, “Sulfonamides that activate ABA receptors” (The Regents of the University of California, priority 2014, dated 2020).

What was measured:
Assay in all cases: receptor-mediated PP2C (HAB1) inhibition in vitro assay
Format in all cases: biochemical
PYL11 = molecular target: T1, PYL11 (Arabidopsis thaliana, UniProt Q9FJ50); conditions: for IC50: Table VII, read-out: PP2C Dose Curves PYL11 (IC50)
T1 construct: made in house; host or cells: E. coli BL21[DE3]pLysS
T1 sequence (Q9FJ50 1-161): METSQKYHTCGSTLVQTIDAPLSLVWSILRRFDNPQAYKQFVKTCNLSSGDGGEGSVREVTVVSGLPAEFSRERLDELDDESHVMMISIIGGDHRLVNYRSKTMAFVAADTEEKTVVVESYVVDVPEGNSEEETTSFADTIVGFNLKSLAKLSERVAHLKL
T1 sequence (Q9CAJ0 23-511 partner): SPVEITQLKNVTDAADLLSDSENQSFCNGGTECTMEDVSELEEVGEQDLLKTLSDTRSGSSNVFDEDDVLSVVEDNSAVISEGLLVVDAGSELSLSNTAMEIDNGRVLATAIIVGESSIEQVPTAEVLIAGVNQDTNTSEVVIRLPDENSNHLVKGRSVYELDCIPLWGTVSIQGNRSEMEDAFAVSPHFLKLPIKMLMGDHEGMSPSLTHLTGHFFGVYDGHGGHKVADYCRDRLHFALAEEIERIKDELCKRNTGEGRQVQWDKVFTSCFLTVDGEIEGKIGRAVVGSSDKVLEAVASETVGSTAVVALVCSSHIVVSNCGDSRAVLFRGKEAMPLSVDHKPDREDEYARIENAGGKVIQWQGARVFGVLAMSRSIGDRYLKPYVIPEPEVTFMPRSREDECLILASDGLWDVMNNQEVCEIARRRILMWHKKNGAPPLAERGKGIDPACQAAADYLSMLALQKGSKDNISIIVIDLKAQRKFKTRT
Outline: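 His-tagged receptors (MBP fusion for PYL11) at 2:1 ratio to 50 nM GST-HAB1 in 100 mM Tris-OAc pH 7.9, 100 mM NaCl, 1 mM MnCl2; 4-methylumbelliferyl-phosphate fluorogenic substrate. Compounds at 50 uM (ABA 10 uM); IC50 from dose curves for selected compounds.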

PYL6 = molecular target: T2, PYL6 (Arabidopsis thaliana, UniProt Q8S8E3); conditions: for IC50: Table VII, read-out: PP2C Dose Curves PYL6 (IC50)
T2 construct: 6X-His; made in house; host or cells: E. coli BL21[DE3]pLysS
T2 sequence (Q8S8E3 1-215): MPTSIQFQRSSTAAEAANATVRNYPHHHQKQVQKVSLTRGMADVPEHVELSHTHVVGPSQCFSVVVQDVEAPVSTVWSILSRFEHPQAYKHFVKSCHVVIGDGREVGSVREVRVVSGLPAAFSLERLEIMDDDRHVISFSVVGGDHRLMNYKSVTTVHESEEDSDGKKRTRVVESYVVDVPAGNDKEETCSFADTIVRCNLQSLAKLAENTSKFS
T2 sequence (Q9CAJ0 23-511 partner): T1 sequence (Q9CAJ0 23-511 partner)
Outline: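 Compounds, tested at 25 μM or 50 uM with ABA at 10 uM, were incubated with recombinant receptor and 50 nM GST-HAB1 (2:1 ratio) in MnCl2-containing Tris-OAc buffer, pH 7.9. Phosphatase activity was followed by 4-methylumbelliferyl-phosphate fluorescence.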

PYL9 = molecular target: T3, PYL9 (Arabidopsis thaliana, UniProt Q84MC7); conditions: for IC50: Table VII, read-out: PP2C Dose Curves PYL9 (IC50); for remaining activity at 25 µM: compound at 25 μM, control without agonist = 100%
T3 construct: 6X-His; made in house; host or cells: E. coli BL21[DE3]pLysS
T3 sequence (Q84MC7 1-187): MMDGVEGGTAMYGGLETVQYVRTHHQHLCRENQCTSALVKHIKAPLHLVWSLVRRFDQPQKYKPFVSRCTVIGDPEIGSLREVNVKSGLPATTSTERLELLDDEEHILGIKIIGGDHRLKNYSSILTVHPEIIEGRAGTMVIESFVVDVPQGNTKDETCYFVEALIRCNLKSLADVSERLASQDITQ
T3 sequence (Q9CAJ0 23-511 partner): T1 sequence (Q9CAJ0 23-511 partner)
Outline: (§1)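 Fluorogenic readout: 4-methylumbelliferyl-phosphate hydrolysis by 50 nM GST-HAB1 plus 2:1 His-receptor; Tris-OAc pH 7.9, NaCl, 1 mM MnCl2, β-ME. Compounds at 25 μM or 50 uM single dose; IC50 from dose curves for selected compounds.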

PYL4 = molecular target: T4, PYL4 (Arabidopsis thaliana, UniProt O80920); conditions: for remaining activity at 25 µM: compound at 25 μM, control without agonist = 100%; for IC50: Table VII, read-out: PP2C Dose Curves PYL4 (IC50)
T4 construct: 6X-His; made in house; host or cells: E. coli BL21[DE3]pLysS
T4 sequence (O80920 1-207): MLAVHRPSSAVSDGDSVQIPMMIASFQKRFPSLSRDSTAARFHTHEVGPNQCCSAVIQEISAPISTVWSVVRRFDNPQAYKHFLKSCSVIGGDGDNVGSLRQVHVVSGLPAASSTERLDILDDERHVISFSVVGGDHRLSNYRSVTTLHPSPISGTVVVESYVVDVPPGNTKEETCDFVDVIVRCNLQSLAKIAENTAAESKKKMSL
T4 sequence (Q9CAJ0 23-511 partner): T1 sequence (Q9CAJ0 23-511 partner)
Outline: as §1

PYL5 = molecular target: T5, PYL5 (Arabidopsis thaliana, UniProt Q9FLB1); conditions: for IC50: Table VII, read-out: PP2C Dose Curves PYL5 (IC50); for remaining activity at 25 µM: compound at 25 μM, control without agonist = 100%; for PYL5 agonist potency and selectivity: compounds with cyclopropyl rings at alpha carbon
T5 construct: 6X-His; made in house; host or cells: E. coli BL21[DE3]pLysS
T5 sequence (Q9FLB1 1-203): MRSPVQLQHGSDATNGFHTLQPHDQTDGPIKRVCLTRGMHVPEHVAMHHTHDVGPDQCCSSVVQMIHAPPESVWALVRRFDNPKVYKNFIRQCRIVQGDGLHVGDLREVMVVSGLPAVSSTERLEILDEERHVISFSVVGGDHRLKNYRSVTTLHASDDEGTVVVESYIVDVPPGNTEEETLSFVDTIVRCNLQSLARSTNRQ
T5 sequence (Q9CAJ0 23-511 partner): T1 sequence (Q9CAJ0 23-511 partner)
Outline: as §1

PYL8 = molecular target: T6, PYL8 (Arabidopsis thaliana, UniProt Q9FGM1); conditions: for IC50: Table VII, read-out: PP2C Dose Curves PYL8 (IC50); for remaining activity at 25 µM: compound at 25 μM, control without agonist = 100%
T6 construct: 6X-His; made in house; host or cells: E. coli BL21[DE3]pLysS
T6 sequence (Q9FGM1 1-188): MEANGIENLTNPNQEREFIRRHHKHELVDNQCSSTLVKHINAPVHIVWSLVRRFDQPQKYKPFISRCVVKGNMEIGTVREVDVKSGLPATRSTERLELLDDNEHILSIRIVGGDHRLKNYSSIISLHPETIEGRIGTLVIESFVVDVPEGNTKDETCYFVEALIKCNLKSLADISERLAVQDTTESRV
T6 sequence (Q9CAJ0 23-511 partner): T1 sequence (Q9CAJ0 23-511 partner)
Outline: as §1

IC50 (PYL11)	IC50 (PYL6)	IC50 (PYL9)	remaining activity at 25 µM (PYL9)	remaining activity at 25 µM (PYL4)	IC50 (PYL5)	remaining activity at 25 µM (PYL5)	IC50 (PYL8)	remaining activity at 25 µM (PYL8)	IC50 (PYL4)	SMILES	PP2C Activity PYL11 (PYL11; ABA (10 μM))	PP2C Activity PYL6 (PYL6; ABA (10 μM))	PP2C Activity PYL9 (PYL9; ABA (10 μM))	PP2C Activity PYL4 (PYL4; ABA (10 μM))	PP2C Activity PYL5 (PYL5; ABA (10 μM))	PP2C Activity PYL8 (PYL8; ABA (10 μM))	PYL9 agonist potency and selectivity (PYL9; five- and six-membered rings at alpha carbon)	PYL5 agonist potency and selectivity (PYL5)
										CC1=CC(=O)CC(C)(C)[C@@]1(O)/C=C/C(C)=C\C(=O)O [ABA, Abscisic acid, reference compound]	5.7	10.9	6.3	10.2	4.9	7.0		
1.94 µM	45.5 µM	3 µM	18%	90%	29.5 µM	47%	8.58 µM	35%		CC(C)(C(=O)NS(=O)(=O)Cc1ccc([N+](=O)[O-])cc1)c1ccccc1 [Compound 3]								
4.16 µM	> 50 µM	8.96 µM	32%	90%	> 50 µM	21%	26.3 µM	52%		CC(C)(C(=O)NS(=O)(=O)Cc1ccc(C#N)cc1)c1ccc(Cl)cc1 [Compound 6]								
13.9 µM	> 50 µM	18.5 µM	38%	90%	10.7 µM	33%	40 µM	54%		CC(C)(C(=O)NS(=O)(=O)Cc1ccc(C#N)cc1)c1ccc(Cl)c(Cl)c1 [Compound 7]								
2.48 µM	18.9 µM	1.62 µM	17%	98%	11.1 µM	37%	4.45 µM	32%		CC(C)(C(=O)NS(=O)(=O)Cc1ccc(C#N)cc1)c1ccc(F)cc1 [Compound 13]								
14.9 µM	12.6 µM	8.29 µM	34%	91%	1.95 µM	12%	18.6 µM	52%	> 50 µM	CC(C)(C(=O)NS(=O)(=O)Cc1ccc(C#N)cc1)c1cccc(C#N)c1 [Compound 18]								
2.44 µM	57.1 µM	3.9 µM	15%	86%	> 50 µM	85%	9.65 µM	36%	> 50 µM	CCC(CC)(C(=O)NS(=O)(=O)Cc1ccc([N+](=O)[O-])cc1)c1ccccc1 [Compound 19]								
7.84 µM	> 50 µM	1.88 µM			39.6 µM		48.9 µM			CC(C)(C(=O)NS(=O)(=O)Cc1ccc(C#N)cc1)c1ccccc1 [Compound 23]								
12.7 µM		6.69 µM	21%	94%		102%	12.6 µM	37%		N#Cc1ccc(CS(=O)(=O)NC(=O)C2(c3ccccc3F)CCCC2)cc1 [Compound 25]								
7.52 µM		7.11 µM	18%	99%		105%	11.5 µM	33%		N#Cc1ccc(CS(=O)(=O)NC(=O)C2(c3cccc(F)c3)CCCC2)cc1 [Compound 26]								
1.77 µM	> 50 µM	1.27 µM	14%	96%	> 50 µM	90%	3.36 µM	28%		N#Cc1ccc(CS(=O)(=O)NC(=O)C2(c3ccccc3)CCC2)cc1 [Compound 29]								
2.25 µM	> 50 µM	1.4 µM	12%	92%	> 50 µM	74%	3.23 µM	24%		N#Cc1ccc(CS(=O)(=O)NC(=O)C2(c3ccc(F)cc3)CCC2)cc1 [Compound 32]								
3.29 µM	34.7 µM	27.2 µM	49%	94%	3.91 µM	20%	> 50 µM	62%		N#Cc1ccc(CS(=O)(=O)NC(=O)C2(c3ccc(F)cc3)CC2)cc1 [Compound 35]								
14.7 µM	> 50 µM	17.4 µM	42%	88%	29.4 µM	45%	52.4 µM	65%		COc1ccccc1C1(C(=O)NS(=O)(=O)Cc2ccc(C#N)cc2)CCC1 [Compound 42]								
> 50 µM		28.2 µM	46%	95%		95%	22.7 µM	41%		Cc1cccc(C2(C(=O)NS(=O)(=O)Cc3ccc(C#N)cc3)CCCC2)c1 [Compound 43]								
13.3 µM	12.2 µM	21.1 µM	50%	89%	2.48 µM	18%	49.5 µM	63%		Cc1ccccc1C1(C(=O)NS(=O)(=O)Cc2ccc(C#N)cc2)CC1 [Compound 44]								potent and relatively selective PYL5 agonists

SMILES	IC50 (PYL11)	IC50 (PYL6)	IC50 (PYL9)	remaining activity at 25 µM (PYL9)	remaining activity at 25 µM (PYL4)	IC50 (PYL5)	remaining activity at 25 µM (PYL5)	IC50 (PYL8)	remaining activity at 25 µM (PYL8)	IC50 (PYL4)	PP2C Activity PYL11 (PYL11; ABA (10 μM))	PP2C Activity PYL6 (PYL6; ABA (10 μM))	PP2C Activity PYL9 (PYL9; ABA (10 μM))	PP2C Activity PYL4 (PYL4; ABA (10 μM))	PP2C Activity PYL5 (PYL5; ABA (10 μM))	PP2C Activity PYL8 (PYL8; ABA (10 μM))	PYL9 agonist potency and selectivity (PYL9; five- and six-membered rings at alpha carbon)	PYL5 agonist potency and selectivity (PYL5)
N#Cc1ccc(CS(=O)(=O)NC(=O)C2(c3ccc(F)cc3)CCCC2)cc1 [Compound 24]	4.09 µM	> 50 µM	0.6 µM	10%	92%	> 50 µM	99%	6.38 µM	21%	> 50 µM							potent and relatively selective PYL9 agonists	
N#Cc1ccc(CS(=O)(=O)NC(=O)C2(c3ccc(Br)cc3)CC2)cc1 [Compound 30]	4.63 µM	> 50 µM	> 50 µM	69%	90%	0.86 µM	12%	> 50 µM	82%									potent and relatively selective PYL5 agonists
